Structures can show the parent of a compound that is named as a salt. Where two headings read alike, the source gives them in different places.
What was measured:
human M3 receptor = biological target: T1, human M3 receptor (Homo sapiens, UniProt P20309); test: Test for binding to human M3 receptor
T1 construct: expressed in transfected cells; host or cells: CHO cells
Summary of the method: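 CHO-cell crude membranes expressing human M3 were incubated with [N-methyl-3H]-(−)-scopolamine methyl chloride in 50 mM Tris-HCl, 0.5 mM EDTA, pH 7.4, for 60 min at room temperature. Bound ligand was collected on PEI-pretreated glass-fibre filters and counted by liquid scintillation. Ki was calculated from IC50 and the radioligand Kd.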

neurokinin NK1 receptor = biological target: T2, neurokinin NK1 receptor (Cavia porcellus, UniProt P30547); test: Effect of suppressing substance P-induced airway contraction (in vivo, intratracheal administration); design: species or system guinea pig; details: guinea pigs, intratracheal administration 60 minutes before 20 μg/kg i.v. SP, AUC of increase in airway pressure over 10 minutes; for ED50: guinea pig, read-out: ID50 (the source's name)
T2 construct: Using healthy guinea pigs (body weight, 350 to 550 g; Hartley male guinea pigs); from tissue; host or cells: live anaesthetised Hartley male guinea pigs (airway, in vivo)
Summary of the method: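 Anaesthetised, gallamine-paralysed, ventilated male Hartley guinea pigs; compound in 5% glucose given intratracheally 60 min before 20 μg/kg i.v. substance P. Airway-pressure increase AUC over 10 min, inhibition versus vehicle group, expressed as ID50.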

substance P receptor = biological target: T3, substance P receptor (Cavia porcellus, UniProt P30547); test: Test for binding to guinea-pig substance P receptor (crude lung membrane sample)
T3 construct: A preparation of a crude lung membrane sample was prepared; from tissue; host or cells: guinea-pig lung (crude membrane sample)
Method: A preparation of a crude lung membrane sample was prepared, and a test for binding of a test substance to the sample was performed according to the method described in EP0336230A2.
The binding effect of the test substance to a substance P receptor was calculated as an affinity (Ki) of the test substance for the substance P receptor from a 50% binding concentration (IC50) and an affinity (Kd) of [^3H]substance P for the substance P receptor.

muscarine M3 receptor = test: Effect of suppressing methacholine-induced airway contraction (in vivo, intratracheal administration); design: species or system guinea pig; details: guinea pigs, intratracheal administration 60 minutes before 30 μg/kg i.v. methacholine; AUC of increase in airway pressure over 10 minutes
Summary of the method: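 Anesthetized, gallamine-paralysed, ventilated male Hartley guinea pigs (350–550 g); compound in 5% glucose given intratracheally 60 min before 30 μg/kg i.v. methacholine. Airway pressure AUC over 10 min scored; ID50 from inhibition versus 5% glucose vehicle group.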

[1] = crude guinea-pig lung membrane sample, [3H]substance P, Ki from IC50 and Kd, read-out: Ki
[2] = CHO cells expressing human M3 receptor, [N-methyl-3H]-(-)-Scopolamine methyl chloride 0.5 nM, Ki from IC50 and Kd, read-out: Ki

T1 sequence (P20309 whole entry): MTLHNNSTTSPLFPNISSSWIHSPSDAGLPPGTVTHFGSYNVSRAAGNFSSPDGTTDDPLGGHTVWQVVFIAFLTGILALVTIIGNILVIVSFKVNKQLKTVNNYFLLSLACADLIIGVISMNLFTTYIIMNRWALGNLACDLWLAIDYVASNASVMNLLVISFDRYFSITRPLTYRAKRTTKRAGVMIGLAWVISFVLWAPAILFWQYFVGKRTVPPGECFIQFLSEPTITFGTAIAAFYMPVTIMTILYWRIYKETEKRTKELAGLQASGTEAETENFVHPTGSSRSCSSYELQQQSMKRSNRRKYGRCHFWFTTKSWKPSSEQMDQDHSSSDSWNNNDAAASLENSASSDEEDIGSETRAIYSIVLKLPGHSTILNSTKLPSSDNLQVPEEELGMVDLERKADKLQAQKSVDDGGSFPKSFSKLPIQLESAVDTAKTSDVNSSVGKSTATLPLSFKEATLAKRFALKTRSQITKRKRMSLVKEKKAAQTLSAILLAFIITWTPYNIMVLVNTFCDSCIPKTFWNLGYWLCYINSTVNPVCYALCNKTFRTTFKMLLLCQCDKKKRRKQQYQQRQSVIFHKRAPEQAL
T2 sequence (P30547 whole entry): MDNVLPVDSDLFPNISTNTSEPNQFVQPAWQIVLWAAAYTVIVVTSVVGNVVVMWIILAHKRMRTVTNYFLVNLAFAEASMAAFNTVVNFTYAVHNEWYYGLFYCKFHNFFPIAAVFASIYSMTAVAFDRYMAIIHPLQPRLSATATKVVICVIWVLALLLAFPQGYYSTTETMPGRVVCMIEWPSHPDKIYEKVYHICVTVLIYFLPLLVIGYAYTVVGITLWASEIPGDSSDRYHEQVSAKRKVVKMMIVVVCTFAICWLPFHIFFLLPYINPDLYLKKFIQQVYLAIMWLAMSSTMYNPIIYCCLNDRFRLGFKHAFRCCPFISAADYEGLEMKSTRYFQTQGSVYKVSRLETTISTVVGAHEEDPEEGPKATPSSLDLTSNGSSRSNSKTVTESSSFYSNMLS
T3 sequence (P30547 whole entry): as above

| SMILES | Ki (human M3 receptor) | ED50 (neurokinin NK1 receptor) | Ki (substance P receptor; [1]) | ID50 (muscarine M3 receptor) | Ki (human M3 receptor; [2]) | ID50 (neurokinin NK1 receptor) | Ki (substance P receptor) |
| --- | --- | --- | --- | --- | --- | --- | --- |
| CN(CCN1CCC(OC(=O)Nc2ccccc2-c2ccccc2)CC1)C(=O)CCCCCNc1cccc(C(=O)N(C)CCCN(C)C(=O)CO[C@H]2Cc3ccccc3C23CCN(CC[C@@]2(c4ccc(F)cc4)CN(C(=O)c4cc(C(F)(F)F)cc(C(F)(F)F)c4)CO2)CC3)c1 [Example 43, 1-(2-{[6-({3-[{3-[({[(2S)-1′-{2-[(5R)-3-[3,5-Bis(trifluoromethyl)benzoyl]-5-(4-fluorophenyl)-1,3-oxazolidin-5-yl]ethyl}-2,3-dihydrospiro[indene-1,4′-piperidin]-2-yl]oxy}acetyl)(methyl)amino]propyl}(methyl)carbamoyl]phenyl}amino)hexanoyl](methyl)amino}ethyl)piperidin-4-yl biphenyl-2-ylcarbamate trihydrochloride] | 2.6 nM | 0.0766 mg/kg | 1.6 nM | 0.0757 mg/kg | – | – | – |
| CN(CCN1CCC(OC(=O)Nc2ccccc2-c2ccccc2)CC1)C(=O)CCCCCNc1ccc(C(=O)N(C)CCCN(C)C(=O)CO[C@H]2Cc3ccccc3C23CCN(CC[C@@]2(c4ccc(F)cc4)CN(C(=O)c4cc(C(F)(F)F)cc(C(F)(F)F)c4)CO2)CC3)cc1 [Example 72, 1-(2-{[6-({4-[{3-[({[(2S)-1′-{2-[(5R)-3-[3,5-Bis(trifluoromethyl)benzoyl]-5-(4-fluorophenyl)-1,3-oxazolidin-5-yl]ethyl}-2,3-dihydrospiro[indene-1,4′-piperidin]-2-yl]oxy}acetyl)(methyl)amino]propyl}(methyl)carbamoyl]phenyl}amino)hexanoyl](methyl)amino}ethyl)piperidin-4-yl biphenyl-2-ylcarbamate] | – | 0.0266 mg/kg | 1.4 nM | 0.0635 mg/kg | 1.6 nM | – | – |
| CN(CCCCCC(=O)N(C)CCN1CCC(OC(=O)Nc2ccccc2-c2ccccc2)CC1)Cc1ccc(C(=O)N(C)CCCN(C)C(=O)CO[C@H]2Cc3ccccc3C23CCN(CC[C@@]2(c4ccc(F)cc4)CN(C(=O)c4cc(C(F)(F)F)cc(C(F)(F)F)c4)CO2)CC3)cc1 [Example 74, 1-{2-[{6-[{4-[{3-[({[(2S)-1′-{2-[(5R)-3-[3,5-Bis(trifluoromethyl)benzoyl]-5-(4-fluorophenyl)-1,3-oxazolidin-5-yl]ethyl}-2,3-dihydrospiro[indene-1,4′-piperidin]-2-yl]oxy}acetyl)(methyl)amino]propyl}(methyl)carbamoyl]benzyl}(methyl)amino]hexanoyl}(methyl)amino]ethyl}piperidin-4-yl biphenyl-2-ylcarbamate] | – | 0.0174 mg/kg | 0.87 nM | 0.043 mg/kg | 0.32 nM | – | – |
| CN(CCN1CCC(OC(=O)Nc2ccccc2-c2ccccc2)CC1)C(=O)CCCCCN(C)c1ccc(C(=O)N(C)CCCN(C)C(=O)CO[C@H]2Cc3ccccc3C23CCN(CC[C@@]2(c4ccc(F)cc4)CN(C(=O)c4cc(C(F)(F)F)cc(C(F)(F)F)c4)CO2)CC3)cc1 [Example 76, 1-{2-[{6-[{4-[{3-[({[(2S)-1′-{2-[(5R)-3-[3,5-Bis(trifluoromethyl)benzoyl]-5-(4-fluorophenyl)-1,3-oxazolidin-5-yl]ethyl}-2,3-dihydrospiro[indene-1,4′-piperidin]-2-yl]oxy}acetyl)(methyl)amino]propyl}(methyl)carbamoyl]phenyl}(methyl)amino]hexanoyl}(methyl)amino]ethyl}piperidin-4-yl biphenyl-2-ylcarbamate] | – | 0.0622 mg/kg | 2.7 nM | 0.0292 mg/kg | 3.4 nM | – | – |
| CN(CCN1CCC(OC(=O)Nc2ccccc2-c2ccccc2)CC1)C(=O)CCCCCNc1ccc(N(C)C(=O)CCCN(C)C(=O)CO[C@H]2Cc3ccccc3C23CCN(CC[C@@]2(c4ccc(F)cc4)CN(C(=O)c4cc(C(F)(F)F)cc(C(F)(F)F)c4)CO2)CC3)cc1 [Example 84, 1-(2-{[6-({4-[{-4-[({[(2S)-1′-{2-[(5R)-3-[3,5-Bis(trifluoromethyl)benzoyl]-5-(4-fluorophenyl)-1,3-oxazolidin-5-yl]ethyl}-2,3-dihydrospiro[indene-1,4′-piperidin]-2-yl]oxy}acetyl)(methyl)amino]butanoyl}(methyl)amino]phenyl}amino)hexanoyl](methyl)amino}ethyl)piperidin-4-yl biphenyl-2-ylcarbamate trihydrochloride] | 1.2 nM | 0.0357 mg/kg | 2.7 nM | 0.0143 mg/kg | – | – | – |
| CN(CCN1CCC(OC(=O)Nc2ccccc2-c2ccccc2)CC1)C(=O)CCCCCNc1nc2ccc(C(=O)N(C)CCCN(C)C(=O)CO[C@H]3Cc4ccccc4C34CCN(CC[C@@]3(c5ccc(F)cc5)CN(C(=O)c5cc(C(F)(F)F)cc(C(F)(F)F)c5)CO3)CC4)cc2s1 [Example 93, 1-(2-{[6-({6-[{3-[({[(2S)-1′-{2-[(5R)-3-[3,5-Bis(trifluoromethyl)benzoyl]-5-(4-fluorophenyl)-1,3-oxazolidin-5-yl]ethyl}-2,3-dihydrospiro[indene-1,4′-piperidin]-2-yl]oxy}acetyl)(methy)amino]propyl}(methyl)carbamoyl]-1,3-benzothiazol-2-yl}amino)hexanoyl](methyl)amino}ethyl)piperidin-4-yl biphenyl-2-ylcarbamate] | – | – | 1 nM | 0.0372 mg/kg | 0.6 nM | 0.0416 mg/kg | – |
| CN(CCN1CCC(OC(=O)Nc2ccccc2-c2ccccc2)CC1)C(=O)CCNc1ccc(C(=O)N(C)CCCN(C)C(=O)CO[C@H]2Cc3ccccc3C23CCN(CC[C@@]2(c4ccc(F)cc4)CN(C(=O)c4cc(C(F)(F)F)cc(C(F)(F)F)c4)CO2)CC3)cc1 [Example 94, 1-{2-[(N-{4-[{3-[({[(2S)-1′-{2-[(5R)-3-[3,5-Bis(trifluoromethyl)benzoyl]-5-(4-fluorophenyl)-1,3-oxazolidin-5-yl]ethyl}-2,3-dihydrospiro[indene-1,4′-piperidin]-2-yl]oxy}acetyl)(methyl)amino]propyl}(methyl)carbamoyl]phenyl}-β-alanyl)(methyl)amino]ethyl}piperidin-4-yl biphenyl-2-ylcarbamate] | – | 0.0087 mg/kg | 0.81 nM | 0.0395 mg/kg | 2 nM | – | – |
| CN(CCN1CCC(OC(=O)Nc2ccccc2-c2ccccc2)CC1)C(=O)CCN(C)c1ccc(C(=O)N(C)CCCN(C)C(=O)CO[C@H]2Cc3ccccc3C23CCN(CC[C@@]2(c4ccc(F)cc4)CN(C(=O)c4cc(C(F)(F)F)cc(C(F)(F)F)c4)CO2)CC3)cc1 [Example 95, 1-{2-[(N-{4-[{3-[({[(2S)-1′-{2-[(5R)-3-[3,5-Bis(trifluoromethyl)benzoyl]-5-(4-fluorophenyl)-1,3-oxazolidin-5-yl]ethyl}-2,3-dihydrospiro[indene-1,4′-piperidin]-2-yl]oxy}acetyl)(methy)amino]propyl}(methyl)carbamoyl]phenyl}-N-methyl-β-alanyl)(methyl)amino]ethyl}piperidin-4-yl biphenyl-2-ylcarbamate] | – | 0.0225 mg/kg | – | 0.0462 mg/kg | 2.1 nM | – | 1.4 nM |

Source: US8476253B2, “Amide derivative” (Daiichi Sankyo Company, Limited, priority 2009, dated 2013)
